{
  "source": "paper PMC11359702",
  "about": "“Synthesis and Biochemical Evaluation of Ethanoanthracenes and Related Compounds: Antiproliferative and Pro-Apoptotic Effects in Chronic Lymphocytic Leukemia (CLL)” (Pharmaceuticals, 2024)",
  "key": {"PGA-1 cells": {"test_system": "PGA-1 cells", "assay": "alamarBlue cell viability assay", "conditions": "Homo sapiens, 24 h, read-out: cell viability"}, "HG-3 cells [1]": {"test_system": "HG-3 cells", "assay": "alamarBlue cell viability assay", "conditions": "Homo sapiens, HG-3, 24 h; for viability at 10 µM: read-out: cell viability, HG-3, 10 µM, 24 h, vehicle = 100%; for viability at 1 µM: read-out: cell viability, HG-3, 1 µM, 24 h, vehicle = 100%"}, "[2]": {"assay": "HPLC stability study in phosphate buffers", "type": "physicochemical", "conditions": "for recovery at 24 h: over the pH range studied (pH 4, 7.4 and 9); for remaining at 24 h, 14.6 µg/mL / half-life at 14.6 µg/mL: phosphate buffer; for remaining at 24 h, 14.6 µg/mL / % remaining 24 h pH 4 / % remaining 24 h pH 7.4 / % remaining 24 h pH 9: HPLC", "method": "A preliminary stability study was carried out on selected chalcones, maleic anhydride and maleimide adducts at acidic, neutral and basic conditions (pH 4, 7.4 and 9) using HPLC to determine suitability for further preclinical investigations. […] A possible degradation route for the maleimide 23n could be through the hydrolysis of the cyclic imide of the maleimide ring, leading to the resultant amic acid product.\nAll samples were analyzed using acetonitrile–water (80:20%, 70:30%, 60:40% isocratic) as the mobile phase over 10 min and a flow rate of 1 mL/min. Stock solutions were prepared by dissolving 5 mg of compounds in a mobile phase ([(acetonitrile (80%): water (20%)], 10 mL). Anhydride 22h was not detected at its retention time of 5.2 min at pH 9.0. The data presented represent the results of single experiments.\nThe HPLC stability studies for compounds 21a, 21i, 22h, 23a, 23g, 23n, 24a, 24h, 26a and 26n were performed using a Symmetry® column (C18, 5 µm, 4.6 × 150 mm), a Waters 2487 Dual Wavelength Absorbance detector, and an HPLC pump: Waters 1525 binary and Autosampler; Waters 717 plus (Waters Corporation, Milford, MA, USA), mobile phase [(acetonitrile (80%) and water (20%)] with a typical run time of 10 min and a flow rate of 1 mL/min with detection at 254 nm. The selected compounds 21a, 21i, 22h, 23a, 23g, 23n, 24a, 24h, 26a and 26n (5 mg) in the mobile phase (10 mL) provided the stock solution for the analysis. The phosphate buffers were prepared at pH values of 4, 7.4 and 9, as described in the British Pharmacopoeia monograph 2019. The stock solution (30 µL) was added to the appropriate buffer (1 mL) and retained at 37 °C. Samples were then analyzed over the following 24-h period at selected time intervals (t = 0 min, 5 min, 30 min, 60 min, 90 min, 120 min and 24 h)."}, "HG-3 cells [3]": {"test_system": "HG-3 cells"}, "[4]": {"conditions": "pH 4 buffer, 37 °C, read-out: % remaining 24 h pH 4"}, "[5]": {"conditions": "pH 4 buffer, 37 °C, read-out: Half-life pH 4 (converted)"}, "[6]": {"conditions": "pH 7.4 buffer, 37 °C, read-out: % remaining 24 h pH 7.4"}, "[7]": {"conditions": "pH 7.4 buffer, 37 °C, read-out: Half-life pH 7.4 (converted)"}, "[8]": {"conditions": "pH 9 buffer, 37 °C, read-out: % remaining 24 h pH 9"}, "[9]": {"conditions": "pH 9 buffer, 37 °C, read-out: Half-life pH 9 (converted)"}},
  "note": "Several values for one entry are separate records, joined by “and”; a condition that tells them apart may be missing. Equal values may be shown once. Read-outs that look alike come from different tables or passages of the source.",
  "data": [
    {"smiles": "O=C1C2C(C(=O)N1c1ccccc1)C1(/C=C/[N+](=O)[O-])c3ccccc3C2(Cl)c2ccccc21", "note": "(stereo not shown) [Compound 20g]", "values": [
      {"measurement": "viability at 10 µM", "setting": "PGA-1 cells", "value": 1, "unit": "%"},
      {"measurement": "viability at 10 µM", "setting": "HG-3 cells [1]", "value": 2, "unit": "%"}
    ]},
    {"smiles": "O=C1OC(=O)C2C1C1c3ccccc3C2(/C=C/[N+](=O)[O-])c2ccccc21", "note": "(stereo not shown) [Compound 20h]", "values": [
      {"measurement": "viability at 10 µM", "setting": "PGA-1 cells", "value": 2, "unit": "%"},
      {"measurement": "viability at 10 µM", "setting": "HG-3 cells [1]", "value": 31, "unit": "%"}
    ]},
    {"smiles": "O=C(/C=C/c1c2ccccc2cc2ccccc12)c1ccc(Br)cc1", "note": "[Compound 21a, (E)-3-(anthracen-9-yl)-1-(4-bromophenyl)prop-2-en-1-one]", "values": [
      {"measurement": "recovery at 24 h", "setting": "[2]", "value": "< 50", "unit": "%"},
      {"measurement": "remaining at 24 h, 14.6 µg/mL", "setting": "[2]; [4]", "value": 46.3, "unit": "%"},
      {"measurement": "half-life at 14.6 µg/mL", "setting": "[2]; [5]", "value": 3.25, "unit": "h"},
      {"measurement": "remaining at 24 h, 14.6 µg/mL", "setting": "[2]; [6]", "value": 38.6, "unit": "%"},
      {"measurement": "half-life at 14.6 µg/mL", "setting": "[2]; [7]", "value": 2, "unit": "h"},
      {"measurement": "remaining at 24 h, 14.6 µg/mL", "setting": "[2]; [8]", "value": 38.6, "unit": "%"},
      {"measurement": "half-life at 14.6 µg/mL", "setting": "[2]; [9]", "value": 1.5, "unit": "h"}
    ]},
    {"smiles": "O=C(/C=C/c1c2ccccc2cc2ccccc12)c1ccc(Cl)cc1Cl", "note": "[Compound 21d, (E)-3-(anthracen-9-yl)-1-(2,4-dichlorophenyl)prop-2-en-1-one]", "values": [
      {"measurement": "viability at 10 µM", "setting": "PGA-1 cells", "value": 50, "unit": "%"},
      {"measurement": "viability at 1 µM", "setting": "HG-3 cells [1]", "value": "50 to 61", "unit": "%"},
      {"measurement": "viability at 10 µM", "setting": "HG-3 cells [1]", "value": "37 to 54", "unit": "%"}
    ]},
    {"smiles": "COc1ccc(C(=O)/C=C/c2c3ccccc3cc3ccccc23)cc1OC", "note": "[Compound 21e, (E)-3-(Anthracen-9-yl)-1-(3,4-dimethoxyphenyl)prop-2-en-1-one]", "values": [
      {"measurement": "viability at 1 µM", "setting": "HG-3 cells [1]", "value": "50 to 61", "unit": "%"},
      {"measurement": "viability at 10 µM", "setting": "HG-3 cells [1]", "value": "37 to 54", "unit": "%"}
    ]},
    {"smiles": "O=C(/C=C/c1c2ccccc2cc2ccccc12)c1ccc(F)cc1", "note": "[Compound 21h, (E)-3-(anthracen-9-yl)-1-(4-fluorophenyl)prop-2-en-1-one]", "values": [
      {"measurement": "viability at 10 µM", "setting": "PGA-1 cells", "value": 70, "unit": "%"}
    ]},
    {"smiles": "COc1ccc(C(=O)/C=C/c2c3ccccc3cc3ccccc23)cc1", "note": "[Compound 21i, (E)-3-(anthracen-9-yl)-1-(4-methoxyphenyl)prop-2-en-1-one]", "values": [
      {"measurement": "viability at 10 µM", "setting": "PGA-1 cells", "value": 49, "unit": "%"},
      {"measurement": "recovery at 24 h", "setting": "[2]", "value": "< 50", "unit": "%"},
      {"measurement": "remaining at 24 h, 14.6 µg/mL", "setting": "[2]; [4]", "value": 27.9, "unit": "%"},
      {"measurement": "half-life at 14.6 µg/mL", "setting": "[2]; [5]", "value": "~11.5", "unit": "h"},
      {"measurement": "remaining at 24 h, 14.6 µg/mL", "setting": "[2]; [6]", "value": 26.6, "unit": "%"},
      {"measurement": "half-life at 14.6 µg/mL", "setting": "[2]; [7]", "value": 3.85, "unit": "h"},
      {"measurement": "remaining at 24 h, 14.6 µg/mL", "setting": "[2]; [8]", "value": 42.1, "unit": "%"},
      {"measurement": "half-life at 14.6 µg/mL", "setting": "[2]; [9]", "value": "~11.5", "unit": "h"}
    ]},
    {"smiles": "O=C(/C=C/c1c2ccccc2cc2ccccc12)c1ccc(Cl)cc1", "note": "[Compound 21l, (E)-3-(anthracen-9-yl)-1-(4-chlorophenyl)prop-2-en-1-one]", "values": [
      {"measurement": "viability at 10 µM", "setting": "PGA-1 cells", "value": 70, "unit": "%"}
    ]},
    {"smiles": "O=C(/C=C/c1c2ccccc2cc2ccccc12)c1ccccn1", "note": "[Compound 21n, (E)-3-(anthracen-9-yl)-1-(pyridin-2-yl)prop-2-en-1-one]", "values": [
      {"measurement": "viability at 10 µM", "setting": "PGA-1 cells", "value": 47, "unit": "%"},
      {"measurement": "viability at 1 µM", "setting": "HG-3 cells [1]", "value": "50 to 61", "unit": "%"},
      {"measurement": "viability at 10 µM", "setting": "HG-3 cells [1]", "value": "37 to 54", "unit": "%"}
    ]},
    {"smiles": "O=C(/C=C/C12c3ccccc3C(c3ccccc31)C1C(=O)OC(=O)C12)c1ccc(F)cc1", "note": "(stereo not shown) [Compound 22h]", "values": [
      {"measurement": "recovery at 24 h", "setting": "[2]", "value": "< 50", "unit": "%"},
      {"measurement": "Half-life pH 4", "setting": "[2]; pH 4 buffer, 37 °C", "value": 2.1, "unit": "h"},
      {"measurement": "% remaining 24 h pH 4", "setting": "[2]; pH 4 buffer, 37 °C", "value": 0.81, "unit": "%"},
      {"measurement": "Half-life pH 7.4", "setting": "[2]; pH 7.4 buffer, 37 °C", "value": 1, "unit": "h"},
      {"measurement": "% remaining 24 h pH 7.4", "setting": "[2]; pH 7.4 buffer, 37 °C", "value": 3.13, "unit": "%"},
      {"measurement": "% remaining 24 h pH 9", "setting": "[2]; pH 9 buffer, 37 °C", "value": "not detected"}
    ]},
    {"smiles": "O=C(/C=C/C12c3ccccc3C(c3ccccc31)C1C(=O)N(c3ccccc3)C(=O)C12)c1ccc(Br)cc1", "note": "(stereo not shown) [Compound 24a]", "values": [
      {"measurement": "viability at 10 µM", "setting": "PGA-1 cells", "value": 25, "unit": "%"},
      {"measurement": "recovery at 24 h", "setting": "[2]", "value": "< 50", "unit": "%"},
      {"measurement": "remaining at 24 h, 14.6 µg/mL", "setting": "[2]; [4]", "value": 48.4, "unit": "%"},
      {"measurement": "half-life at 14.6 µg/mL", "setting": "[2]; [5]", "value": 4.17, "unit": "h"},
      {"measurement": "remaining at 24 h, 14.6 µg/mL", "setting": "[2]; [6]", "value": 45.2, "unit": "%"},
      {"measurement": "half-life at 14.6 µg/mL", "setting": "[2]; [7]", "value": 23.5, "unit": "h"},
      {"measurement": "remaining at 24 h, 14.6 µg/mL", "setting": "[2]; [8]", "value": 33.6, "unit": "%"},
      {"measurement": "half-life at 14.6 µg/mL", "setting": "[2]; [9]", "value": 23.5, "unit": "h"},
      {"measurement": "viability at 10 µM", "setting": "HG-3 cells [1]", "value": 14, "unit": "%"}
    ]},
    {"smiles": "O=C(/C=C/C12c3ccccc3C(c3ccccc31)C1C(=O)N(c3ccccc3)C(=O)C12)c1ccc(F)cc1", "note": "(stereo not shown) [Compound 24h]", "values": [
      {"measurement": "Half-life pH 4", "setting": "[2]; pH 4 buffer, 37 °C", "value": 14.8, "unit": "h"},
      {"measurement": "% remaining 24 h pH 4", "setting": "[2]; pH 4 buffer, 37 °C", "value": "25% and 24.97%"},
      {"measurement": "Half-life pH 7.4", "setting": "[2]; pH 7.4 buffer, 37 °C", "value": "> 24", "unit": "h"},
      {"measurement": "% remaining 24 h pH 7.4", "setting": "[2]; pH 7.4 buffer, 37 °C", "value": "80% and 79.48%"},
      {"measurement": "Half-life pH 9", "setting": "[2]; pH 9 buffer, 37 °C", "value": "> 24", "unit": "h"},
      {"measurement": "% remaining 24 h pH 9", "setting": "[2]; pH 9 buffer, 37 °C", "value": "81% and 80.99%"}
    ]},
    {"smiles": "O=C(C=CC12c3ccccc3C(c3ccccc31)C1C(=O)N(c3ccccc3)C(=O)C12)c1ccccn1", "note": "(stereo not shown) [Compound 24n, 9-(E)-3-Oxo-3-(pyridin-2-yl)prop-1-en-1-yl)-13-phenyl-9,10-dihydro-9,10-[3,4]epipyrroloanthracene-12,14-dione]", "values": [
      {"measurement": "cell viability", "setting": "HG-3 cells [3]; 1 µM", "value": 48, "unit": "%"},
      {"measurement": "cell viability", "setting": "HG-3 cells [3]; 10 µM", "value": 4, "unit": "%"}
    ]}
  ]
}
